Results as given in ChEMBL document CHEMBL1165848, “Discovery of new cholesteryl ester transfer protein inhibitors via ligand-based pharmacophore modeling and QSAR analysis followed by synthetic exploration” (Eur J Med Chem, 2010).

What follows are molecules tested against T1, Cholesteryl ester transfer protein (Oryctolagus cuniculus, UniProt P22687) (assay: Inhibition of CETP in rabbit serum after 1 hr by fluorescent cholesteryl esters transfer assay). Conditions: read-out: IC50.
T1 sequence (P22687 whole entry): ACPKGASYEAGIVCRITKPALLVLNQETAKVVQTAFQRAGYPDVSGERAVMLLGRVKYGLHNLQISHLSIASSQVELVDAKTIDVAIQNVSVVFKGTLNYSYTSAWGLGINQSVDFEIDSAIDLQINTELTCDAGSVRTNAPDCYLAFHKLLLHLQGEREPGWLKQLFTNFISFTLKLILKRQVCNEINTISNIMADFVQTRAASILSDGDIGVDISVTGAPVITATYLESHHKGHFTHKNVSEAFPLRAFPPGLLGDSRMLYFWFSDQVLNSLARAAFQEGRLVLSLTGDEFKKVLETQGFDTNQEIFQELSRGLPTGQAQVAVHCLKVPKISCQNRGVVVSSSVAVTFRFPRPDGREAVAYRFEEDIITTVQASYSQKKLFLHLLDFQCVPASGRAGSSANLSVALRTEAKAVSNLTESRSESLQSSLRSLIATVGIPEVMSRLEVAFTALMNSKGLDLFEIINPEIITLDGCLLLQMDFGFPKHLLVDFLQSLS

In order of rising IC50:
1. O=S(=O)(Nc1ccc(CSc2ccc(Cl)cc2)cc1)c1ccccc1  1.9 µM
2. CCN(CC)c1ccc(Nc2ccc(CC(=O)c3ccccc3)cc2)cc1  6.5 µM
3. CCCCCCCCOC(=O)c1ccc2c(c1)Nc1cc3ccccc3cc1N2  60.3 µM
4. COc1ccc(Cl)cc1C(=O)NCCc1ccc(S(=O)(=O)NC(=O)NC2CCCCC2)cc1 [GLYBURIDE]  239 µM

The molecules below were run against T2, Cholesteryl ester transfer protein (Oryctolagus cuniculus) (UniProt P22687) (assay: Inhibition of CETP in rabbit serum at 10 uM after 1 hr by fluorescent cholesteryl esters transfer assay). Conditions: not given.
T2 sequence (whole entry): T1 sequence (P22687 whole entry)

In order of rising inhibition:
1. O=C(COc1cccc(Cl)c1)Nc1cccc(CN2C(=O)c3ccccc3C2=O)c1  0%
2. CCSc1nc2ccc(/N=C\c3ccc(NS(=O)(=O)c4ccccc4)cc3O)cc2s1  0%
3. OC(COc1c(Cl)cc(Cl)cc1Cl)COc1c(Cl)cc(Cl)cc1Cl  0%
4. COc1ccc(/N=C/c2ccc(N(CCC#N)S(=O)(=O)c3ccccc3)cc2)cc1  0%
5. O=C(NC(=O)c1c(F)cccc1F)Nc1ccc(Cl)c(Oc2ncc(C(F)(F)F)cc2Cl)c1  0%
6. Cc1ccc(S(=O)(=O)Nc2cccc3c(NS(=O)(=O)c4ccc(C)cc4)cccc23)cc1  0%
7. O=C(c1ccccc1)c1ccccc1NCC(O)COc1ccc(Cl)cc1 (stereo not given)  0%
8. CC(C)[C@H](Nc1ccc(C(F)(F)F)cc1Cl)C(=O)OC(C#N)c1cccc(Oc2ccccc2)c1 (stereo not given in full)  0%
9. CN(CN(C)/N=C\c1ccc(Cl)cc1)/N=C\c1ccc(Cl)cc1  0%
10. Clc1ccc2c(NCCCC/N=C/c3ccccc3)cccc2c1  0%
11. O=C(NCCCOc1ccc(Cl)c(Cl)c1)NCCc1ccc(Cl)c(Cl)c1  0%
12. Cc1cc(Cl)c(Cl)cc1NC(=O)c1cccc(C(=O)Nc2cc(Cl)c(Cl)cc2C)c1  0%
13. N=c1[nH]c(=O)n(CCCOc2ccccc2)cc1-c1ccc(Cl)c(Cl)c1  0%
14. COc1ccc(OCCCn2cc(-c3ccc(Cl)c(Cl)c3)c(=N)[nH]c2=O)cc1  0%
15. N=C(Nc1cccc2ccccc12)SCCCSC(=N)Nc1cccc2ccccc12  0%
16. O=C(Nc1ccc2c(c1)CCC2)c1ccc(C(=O)Nc2ccc3c(c2)CCC3)cc1  0%
17. O=c1oc2ccccc2c(O)c1C(CC(O)c1ccc(-c2ccc(Br)cc2)cc1)c1ccccc1 (stereo not given)  0%
18. Cc1cc2c(cc1C)NC1=C(O)C(c3c[nH]c4ccc(COc5ccccc5)cc34)OC1=N2 (stereo not given)  0%
19. CC(C)OC(=O)CCC/C=C\C[C@@H]1[C@@H](/C=C/[C@@H](O)COc2cccc(C(F)(F)F)c2)[C@H](O)C[C@@H]1O  0%
20. CCCNCC(O)COc1ccccc1C(=O)CCc1ccccc1 (stereo not given)  0%
21. CC(C)(C(=O)O)c1ccc(C(O)CCCN2CCC(C(O)(c3ccccc3)c3ccccc3)CC2)cc1 (stereo not given)  0%
22. O=C(Nc1ccc(Br)cc1)N1CCN(C(=O)Nc2ccc(Br)cc2)CC1  0%
23. CC(C)(C)c1ccc(C(O)CCCN2CCC(C(O)(c3ccccc3)c3ccccc3)CC2)cc1 (stereo not given)  0%
24. O=C(Nc1ccc(Cl)c(Cl)c1)OCC(Cl)COc1ccc(Cl)cc1 (stereo not given)  0%
25. Cc1ccc(NC(=O)c2ccc(C(=O)Nc3ccc(C)c(Cl)c3)cc2)cc1Cl  0%
26. CCCCOc1ccc(NC(=N)Nc2ccc(Cl)cc2)cc1  0%
27. C[C@]12CC[C@@H]3c4ccc(O)cc4C[C@@H](CCCCCCCCC[S+]([O-])CCCC(F)(F)C(F)(F)F)[C@H]3[C@@H]1CC[C@@H]2O (stereo not given in full)  5.7%
28. CCOc1cc(C2SCC(=O)N2c2ccc(Oc3ccc(Cl)cc3)c(Cl)c2)ccc1O (stereo not given)  6.7%
29. O=C(c1ccccc1)c1cc(Cl)ccc1NCC(O)COc1ccc(Cl)cc1 (stereo not given)  8.1%
30. C/C=C/c1ccc2oc(-c3ccc(OC4OC(C)C(O)C(O)C4O)cc3)c(C)c2c1 (stereo not given)  9%
31. OC1=C2Nc3ccc(Cl)cc3N=C2OC1c1c[nH]c2ccc(COc3ccccc3)cc12 (stereo not given)  9.1%
32. O=C(c1ccc(/N=C/c2cccc(C(F)(F)F)c2)cc1)c1ccc(-c2ccccc2)cc1  9.8%
33. CC(C)OC(=O)CCC/C=C\C[C@@H]1[C@@H](CC[C@@H](O)CCc2ccccc2)[C@H](O)C[C@@H]1O  11.4%
34. CC(C)C[C@H]1C(=O)N2CCC[C@H]2[C@]2(O)O[C@](NC(=O)[C@@H]3C=C4c5cccc6[nH]c(Br)c(c56)C[C@H]4N(C)C3)(C(C)C)C(=O)N12  12.3%
35. COc1ccc(C(=O)c2cccc(/N=C/c3ccccc3)c2)cc1  12.6%
36. COc1ccc2nc3cc(Cl)ccc3c(Nc3ccc(C(O)CCn4cccc4)cc3)c2c1 (stereo not given)  13.4%
37. Cc1ccc(Nc2ccc(Nc3ccc(C)cc3)c3c2C(=O)c2cccc(O)c2C3=O)cc1  14%
38. COc1ccc(/C=N/c2cccc(C(=O)c3ccc(OC)cc3)c2)cc1  14.8%
39. COc1ccc(C(=O)c2ccc(/N=C/c3cccc(C(F)(F)F)c3)cc2)c(OC)c1  14.9%
40. COc1ccc(C(=O)c2ccc(/N=C/c3ccc(C(F)(F)F)cc3)cc2)c(OC)c1  15.4%
41. CCN(CC)Cc1cc(Nc2ccnc3cc(Cl)ccc23)ccc1O  18.6%
42. CCN(CC)CCC(=O)c1ccc(Nc2ccnc3cc(Cl)ccc23)cc1  20.3%
43. Cc1ccc(Nc2ccc(Nc3ccc(C)cc3)c3c2C(=O)c2cc(Cl)c(Cl)cc2C3=O)cc1  20.8%
44. O=C(Nc1ccc(Cl)cc1C(F)(F)F)Oc1ccc(OCc2ccccc2)cc1  22.1%
45. C=CCc1cccc(/C=N/c2ccccc2NS(=O)(=O)c2ccc(C)cc2)c1O  22.6%
46. COc1cccc(/C=N/c2ccc(C(=O)c3ccc(OC)cc3OC)cc2)c1  23.7%
47. COc1ccc(C(=O)c2ccc(/N=C/c3ccc(C(C)(C)C)cc3)cc2)c(OC)c1  24.9%
48. CCCCOc1ccc2nccc(N/N=C/c3ccc(OC)c4ccccc34)c2c1  25.4%
49. CCOc1ccc(/N=C/c2ccc(O)c(OC)c2)c(O)c1  25.5%
50. O=C(c1ccccc1)c1cccc(/N=C/c2ccc(C(F)(F)F)cc2)c1  26.3%
51. OCc1cc(C(O)CNCCCCCCOCCCCc2ccccc2)ccc1O (stereo not given)  27.4%
52. CCCCCCCCOC(=O)c1ccc2c(c1)Nc1cc3ccccc3cc1N2  33%
53. O=C(c1ccc(-c2ccccc2)cc1)c1cccc(/N=C/c2cccc(C(F)(F)F)c2)c1  33.8%
54. COc1ccc(Cl)cc1C(=O)NCCc1ccc(S(=O)(=O)NC(=O)NC2CCCCC2)cc1 [GLYBURIDE]  35%
55. CCN(CC)c1ccc(Nc2ccc(CC(=O)c3ccccc3)cc2)cc1  52.5%
56. O=S(=O)(Nc1ccc(CSc2ccc(Cl)cc2)cc1)c1ccccc1  82.5%
